According to the Deep4Chem optical property database:
Values joined by “and” are separate entries in the source; they are usually repeats but may differ in a detail not shown here. Equal values may be shown once. One block for each compound: values may come before it.

Assay: solvent given as SMILES

Structure (SMILES): CC1(C)C(/C=C/C=C/C=C/C=C2/N(S(=O)(=O)[O-])c3ccc(S(=O)(=O)[O-])cc3C2(C)C)=[N+](S(=O)(=O)[O-])c2ccc(S(=O)(=O)[O-])cc21
absorption maximum (in CO): 755 nm

Structure (SMILES): CN(CCO)c1ccc(/C=C/C2=C(C#N)C(C(C#N)C#N)OC2(C)C)cc1 (stereo not given)
absorption maximum (in CC#N): 586 nm
absorption maximum (in CC(C)=O): 574 nm
absorption maximum (in CCO): 579 nm
absorption maximum (in CCOC(C)=O): 565 nm
absorption maximum (in CN(C)C=O): 588 nm
absorption maximum (in CO): 575 nm
absorption maximum (in CS(C)=O): 595 nm
absorption maximum (in Cc1ccccc1): 562 nm
absorption maximum (in ClCCl): 575 nm
absorption maximum (in O): 587 nm

Structure (SMILES): COc1ccc(/C=C/C2=[O+][B-](F)(F)OC(/C=C/c3ccc(OC)cc3)=C2c2ccc(OC)cc2)cc1
absorption maximum (in ClCCl): 506 nm

Structure (SMILES): CC(C)(C)c1ccc(C2=C(c3ccc(C(C)(C)C)cc3)C(c3ccc(C(C)(C)C)cc3)=[N+]3C2=C(c2ccccc2)c2c(-c4ccc(C(C)(C)C)cc4)c(-c4ccc(C(C)(C)C)cc4)c(-c4ccc(C(C)(C)C)cc4)n2[B-]3(F)F)cc1
absorption maximum (in C1CCCCC1): 589 nm
absorption maximum (in C1CCOC1): 585 nm
absorption maximum (in CC#N): 563 nm
absorption maximum (in Cc1ccccc1): 591 nm
absorption maximum (in ClCCl): 579 nm

Structure (SMILES): c1ccc2c(c1)Sc1ccccc1N2c1ccc2c(c1)C1(c3ccccc3-c3ccccc31)c1cc(N3c4ccccc4Sc4ccccc43)ccc1-2
absorption maximum (in Cc1ccccc1): 309 nm

Structure (SMILES): CCCCCCCCCCOc1cc2cc(C#Cc3ccc(/C=C(\C#N)C(=O)O)cc3)c(=O)oc2cc1OCCCCCCCCCC
absorption maximum (in CC#N): 398 nm

Structure (SMILES): N#Cc1c(N2c3ccccc3C(c3ccccc3)(c3ccccc3)c3ccccc32)cccc1N1c2ccccc2C(c2ccccc2)(c2ccccc2)c2ccccc21
absorption maximum (in Cc1ccccc1): 369 nm

Structure (SMILES): CC1(C)c2ccccc2N(c2ccccc2)c2ccc(C(=O)c3ccc4c(c3)C(C)(C)c3ccccc3N4c3ccccc3)cc21
absorption maximum (in Cc1ccccc1): 371.57 nm

Structure (SMILES): CN1C(=Cc2c([O-])c(=O)/c2=N\C#N)C(C)(C)c2ccccc21
absorption maximum (in CCO): 436 nm

Structure (SMILES): Cc1ccc(-n2c3ccc(-c4ccc(-c5nc6ccccc6n5-c5ccccc5)cc4)cc3c3cc(-c4ccc(-c5nc6ccccc6n5-c5ccccc5)cc4)ccc32)cc1
absorption maximum (in ClC(Cl)Cl): 318 nm

Structure (SMILES): CC(C)=CCN1C(=O)c2cccc3c2c(cc2nc(C)oc23)C1=O
absorption maximum (in CCO): 362 nm

Structure (SMILES): Oc1ccc(C2=N[N+]3=Cc4c(ccc5ccccc45)O[B-]3(c3ccc([B-]45OC(c6ccc(O)cc6)=N[N+]4=Cc4c(ccc6ccccc46)O5)cc3)O2)cc1 (stereo not given)
absorption maximum (in C1CCOC1): 424 nm

Structure (SMILES): CC(C)Nc1cc2oc3cc(NC(C)C)c(F)cc3c(=O)c2cc1F
absorption maximum (in CCO): 370 nm

Structure (SMILES): c1ccc(-n2c(-c3ccc([Si](c4ccc(-c5nc6ccccc6n5-c5ccccc5)cc4)(c4ccc(-c5nc6ccccc6n5-c5ccccc5)cc4)c4ccc(-c5nc6ccccc6n5-c5ccccc5)cc4)cc3)nc3ccccc32)cc1
absorption maximum (in ClCCl): 306 nm

Structure (SMILES): CC(C)(C)c1ccc2c(c1)c1cc(C(C)(C)C)ccc1n2-c1ccc(-c2ccc3c(c2)C2(c4cc(-c5ccc(-n6c7ccc(C(C)(C)C)cc7c7cc(C(C)(C)C)ccc76)cc5)ccc4-3)c3ccccc3S(=O)(=O)c3ccccc32)cc1
absorption maximum (in ClCCl): 353 nm

Structure (SMILES): c1ccc(-c2nc(-c3ccc(-c4nc(-c5ccccc5)c(-c5ccccc5)[nH]4)cc3)[nH]c2-c2ccccc2)cc1
absorption maximum (in C1CCOC1): 361 nm
absorption maximum (in CC#N): 355 nm and 358 nm
absorption maximum (in CC(=O)O): 360 nm
absorption maximum (in CC(C)=O): 360 nm
absorption maximum (in CCOC(C)=O): 359 nm
absorption maximum (in CCOCC): 359 nm
absorption maximum (in CO): 357 nm
absorption maximum (in CS(C)=O): 380 nm
absorption maximum (in ClC(Cl)Cl): 358 nm

Structure (SMILES): CN(C)c1ccc(/C=C2/N=C(c3ccccc3)OC2=O)cc1
absorption maximum (in C1CCCCC1): 456 nm
absorption maximum (in C1COCCO1): 466 nm
absorption maximum (in CC#N): 473 nm
absorption maximum (in CC(C)=O): 470 nm
absorption maximum (in CC(C)O): 470 nm
absorption maximum (in CCCCCC): 443 nm
absorption maximum (in CCCCCO): 470 nm
absorption maximum (in CCCCO): 472 nm
absorption maximum (in CCO): 470 nm
absorption maximum (in CN(C)C=O): 482 nm
absorption maximum (in CO): 473 nm
absorption maximum (in ClC(Cl)(Cl)Cl): 466 nm
absorption maximum (in ClC(Cl)Cl): 472 nm
absorption maximum (in ClCCl): 472 nm

Next, values leading:

absorption maximum (in CCCCCC): 544 nm
Structure (SMILES): CC(C)[Si](C#Cc1c2ccccc2c(C#C[Si](C(C)C)(C(C)C)C(C)C)c2nc3c(ccc4ccccc43)nc12)(C(C)C)C(C)C

absorption maximum (in CO): 658 nm
absorption maximum (in ClC(Cl)Cl): 677 nm
absorption maximum (in ClCCl): 678 nm
Structure (SMILES): CC[n+]1c(C=C2C(=O)C(C=C3Sc4cc(Cl)ccc4N3C)=C2[O-])[se]c2ccccc21

absorption maximum (in C1CCCCC1): 375 nm
absorption maximum (in CC#N): 369 nm
Structure (SMILES): FC(F)(F)c1ccc(/C=C/c2nc3c(ccc4ccccc43)s2)cc1

absorption maximum (in ClCCl): 490 nm
Structure (SMILES): N#C/C(=C\c1ccc(/C=C/c2ccc(N(c3ccccc3)c3ccccc3)cc2)s1)C(=O)O

absorption maximum (in ClCCl): 494 nm
Structure (SMILES): c1ccc(C2=C(c3ccccc3)c3cccc4c3c(cc3nc5ccccc5nc34)O2)cc1

absorption maximum (in CC1CCCO1): 459 nm
Structure (SMILES): Cn1c2nc(=O)[nH]c(=O)c-2nc2ccccc21

absorption maximum (in C1CCCCC1): 265.82 nm
Structure (SMILES): COc1ccc(-c2ccccc2)cc1

absorption maximum (in ClC(Cl)Cl): 524 nm
Structure (SMILES): COc1ccc(N(c2ccc(OC)cc2)c2ccc(-c3ccc(C=C(C#N)C#N)o3)cc2)cc1

absorption maximum (in CC#N): 293 nm
absorption maximum (in CO): 293 nm
absorption maximum (in O): 292 nm
Structure (SMILES): CNCCCC1c2ccccc2C=Cc2ccccc21

absorption maximum (in C1CCOC1): 349 nm
absorption maximum (in C1COCCO1): 347 nm
absorption maximum (in CC#N): 349 nm
absorption maximum (in CCCCCCC): 347 nm
absorption maximum (in CCO): 349 nm
absorption maximum (in CO): 349 nm
absorption maximum (in O): 347 nm
Structure (SMILES): CC1(C)CC(=O)C2=C(C1)Oc1ccc3cc(O)ccc3c1C2c1ccccn1 (stereo not given)

absorption maximum (in ClC(Cl)Cl): 575 nm
Structure (SMILES): CC1=C(/C=C/c2ccccc2)C(C)=[N+]2C1=C(c1ccccc1)c1c(C)c(/C=C/c3ccccc3)c(C)n1[B-]2(F)F

absorption maximum (in C1CCOC1): 340 nm
Structure (SMILES): c1ccc(-n2c3ccccc3c3cc(-c4ccc5nc(-c6ccc(-n7c8ccccc8c8ccccc87)cc6)nn5c4)ccc32)cc1

absorption maximum (in ClCCl): 573 nm
Structure (SMILES): c1cc2ccc3[o+]c4ccc5cccc6c7cccc8c(c1)c2c3c(c87)c4c56

absorption maximum (in CO): 800 nm
Structure (SMILES): O=C(O)c1ccc(C2=C(/C=C/c3[se]c4ccccc4[n+]3CCCCS(=O)(=O)[O-])CCC/C2=C\C=C2/[Se]c3ccccc3N2CCCCS(=O)(=O)[O-])cc1

absorption maximum (in ClCCl): 794 nm
Structure (SMILES): CN(C)c1ccc(C2=[N+]3C(=Nc4c5ccccc5c(-c5ccc(N(C)C)cc5)n4[B-]3(F)F)c3ccccc32)cc1

absorption maximum (in O): 429 nm
Structure (SMILES): CCN(CC)c1ccc2c(c1)C(C)(C)C(=O)C=C2

absorption maximum (in CN(C)C=O): 319 nm
Structure (SMILES): Cc1nc2cccc(-c3nc4ccccc4s3)c2c(=O)[nH]1

absorption maximum (in C1CCOC1): 376 nm
absorption maximum (in CC#N): 368 nm
absorption maximum (in CO): 360 nm
absorption maximum (in ClCCl): 377 nm
Structure (SMILES): Clc1ccc(/C=C/c2ccc(-c3nc4c5cccnc5c5ncccc5c4[nH]3)cc2)cc1

absorption maximum (in ClC(Cl)Cl): 655 nm
Structure (SMILES): CCCCCCCCOc1ccc(-c2c3c4n(c(-c5ccc(OCCCCCCCC)cc5)c3c3n2[B-](F)(F)[n+]2c(sc5ccccc52)N=3)[B-](F)(F)[n+]2c(sc3ccccc32)N=4)cc1

absorption maximum (in C1CCCCC1): 592 nm
absorption maximum (in CCOC(C)=O): 587 nm
absorption maximum (in CO): 585 nm
Structure (SMILES): CCCCCCOc1ccc2oc3c(c2c1)=CC1=C(c2ccccc2C)c2cc4c5cc(OCCCCCC)ccc5oc4n2[B-](F)(F)[N+]=31

absorption maximum (in CC#N): 326 nm
absorption maximum (in ClCCl): 343 nm
Structure (SMILES): Cc1cc(-c2ccccc2)cc(C)[o+]1

absorption maximum (in C1CCCCC1): 300 nm
Structure (SMILES): C[SiH](C)c1ccc([SiH](C)C)c2ccccc12
